Experimental data taken from the RepoRT retention time repository (doi:10.1021/acs.analchem.2c02893).

Experiment: RP, Thermo Scientific Acclaim RSLC 120 C18, 100 × 2.1 mm, 2.2 µm, 30 °C, 0.2 mL/min, estimated dead time 1.1 min; A: 90% water + 10% methanol + 0.01% formic acid + 5 mM ammonium formate, pH 3.61; B: methanol + 0.01% formic acid + 5 mM ammonium formate, pH 3.61; gradient (min/%B) 0/1 1/1 2/39 13/99.9 15/99.9 15.1/1 20.1/1
Settings: stereoisomer not certain
Molecule `CNC(=O)Oc1cccc2ccccc12` [Carbaryl] has an LC retention time of 7.46 min. Work on `O=C1CC2(CCCC2)CC(=O)N1CCCCN1CCN(c2ncccn2)CC1` [Buspirone] yielded an LC retention time of 5.78 min. In the case of `CNCCC=C1c2ccccc2COc2ccccc21` [Doxepin-Nor], the LC retention time is reported as 7.03 min. Molecule `COc1ccc2cc(C(C)C(=O)O)ccc2c1` (stereo unspecified) [Naproxen] has an LC retention time of 8.99 min. Work on `COc1nc(C)nc(Cl)c1NC1=NCCN1` [Moxonidine] yielded an LC retention time of 3.26 min. `CCOC(=O)C(C)(C)Oc1ccc(Cl)cc1` [Clofibrate] showed an LC retention time of 11 min. `OCCN1CCN(CCCN2c3ccccc3Sc3cccnc32)CC1` [Oxypendyl] gave an LC retention time of 7.57 min. For `CC1(C)C(C(=O)c2nn(CCCCCF)c3ccccc23)C1(C)C` [FAB-144], the LC retention time was 12.7 min. For `COC(=O)Nc1ccc(Cl)c(Cl)c1` [SWEP.MCC], the LC retention time was 9.68 min. In the case of `O=C(Nc1ccc(Cl)cc1C(O)c1ccccc1)c1ccncc1` (stereo unspecified) [Inabenfide], the LC retention time is reported as 9.27 min. Molecule `CCC(CC)Nc1c([N+](=O)[O-])cc(C)c(C)c1[N+](=O)[O-]` [Pendimethalin] has an LC retention time of 12.8 min. Work on `COc1ccc(C2Sc3ccccc3N(CCN(C)C)C(=O)C2O)cc1` (stereo unspecified) [Diltiazem-Deacetyl] yielded an LC retention time of 6.41 min. Molecule `CC(C)OC(=O)C(C)(C)Oc1ccc(C(=O)c2ccc(Cl)cc2)cc1` [Fenofibrate] has an LC retention time of 12.6 min. With `COP(=S)(OC)Oc1ccc(S(N)(=O)=O)cc1` [Cythioate] the LC retention time was 6.19 min. For `CCOP(=O)(SC(C)CC)SC(C)CC` (stereo unspecified) [Cadusafos], the LC retention time was 11.5 min. `CC#CC1(O)CCC2C3CCC4=CC(=O)CCC4=C3C(c3ccc(N(C)C)cc3)CC21C` (stereo unspecified) [Mifepristone] gave an LC retention time of 11.1 min. With `CC1(C)C(C(=O)OC(C#N)c2cccc(Oc3ccccc3)c2)C1C(Br)C(Br)(Br)Br` (stereo unspecified) [Tralomethrin] the LC retention time was 13.6 min. Molecule `CCCSc1ccc2nc(NC(=O)OC)[nH]c2c1` [Albendazole] has an LC retention time of 9.19 min. `O=C1Nc2ccc(Cl)cc2C(C#CC2CC2)(C(F)(F)F)O1` (stereo unspecified) [Efavirenz] gave an LC retention time of 10.7 min. `NCC(CC(=O)O)c1ccc(Cl)cc1` (stereo unspecified) [Baclofen] gave an LC retention time of 4.27 min. With `Cc1ccc(S(=O)(=O)NC(=O)NC2C3CCC(C)(C2O)C3(C)C)cc1` (stereo unspecified) [Glibornuride] the LC retention time was 9.79 min. In the case of `CC(C)NCC(O)COc1ccc(CCOCC2CC2)cc1` (stereo unspecified) [Betaxolol], the LC retention time is reported as 6.68 min. With `CC12C=CC(=O)C=C1CCC1C2CCC2(C)C(O)CCC12` (stereo unspecified) [Boldenone] the LC retention time was 9.03 min. Work on `CCNC1CC(C)S(=O)(=O)c2sc(S(N)(=O)=O)cc21` (stereo unspecified) [Dorzolamide] yielded an LC retention time of 3.19 min. Work on `CC(C)(COCc1cccc(Oc2ccccc2)c1)c1ccc(OC(F)(F)Br)cc1` [Halfenprox] yielded an LC retention time of 14.3 min. Work on `CCN(CC)CCCOC(=O)C1(c2ccccc2)CC2CCC1C2` (stereo unspecified) [Bornaprine] yielded an LC retention time of 8.54 min. In the case of `CCCCCCCCCCCCOCCOCCOCCOCCO` [Tetraethylene glycol monododecyl ether], the LC retention time is reported as 13.5 min. With `CC(C)(C)C(=O)C(Oc1ccc(Cl)cc1)n1cncn1` (stereo unspecified) [Triadimefon] the LC retention time was 9.68 min. `CC(N)C(O)c1ccccc1` (stereo unspecified) [Cathine / Ephedrine-Nor (Cathin. Phenylpropanolamine)] gave an LC retention time of 3.68 min. For `Cc1onc(-c2ccccc2)c1-c1ccc(S(N)(=O)=O)cc1` [Valdecoxib], the LC retention time was 7.37 min. `CC(C)C(Nc1ccc(C(F)(F)F)cc1Cl)C(=O)OC(C#N)c1cccc(Oc2ccccc2)c1` (stereo unspecified) [Fluvalinate (tau-)] showed an LC retention time of 13.5 min. With `CC1=C(C(=O)Nc2ccccc2)S(=O)(=O)CCO1` [Carboxin-Oxy] the LC retention time was 5.59 min. `CCOC(=O)C(C)Oc1ccc(Oc2cnc3cc(Cl)ccc3n2)cc1` (stereo unspecified) [Quizalofop-ethyl] showed an LC retention time of 12.1 min. In the case of `CCC(CC)OC1C=C(C(=O)O)CC(N)C1NC(C)=O` (stereo unspecified) [Oseltamivir-carboxylate], the LC retention time is reported as 4.73 min. `CCCC(C(=O)c1ccc2ccccc2c1)N1CCCC1` (stereo unspecified) [Naphyrone] showed an LC retention time of 7.33 min. Molecule `CN=C(NC)NCc1ccccc1` [Bethanidine] has an LC retention time of 3.97 min. `CC(COc1ccccc1Cc1ccccc1)N1CCCCC1` (stereo unspecified) [Benproperine] showed an LC retention time of 8.32 min. `CCCOc1nc2ccc(I)cc2c(=O)n1CCC` [Proquinazid] gave an LC retention time of 13.3 min. In the case of `CCOc1c(N)c2c(c(OCC)c1OCC)C(C1c3c(cc4c(c3OC)OCO4)CCN1C)OC2=O` (stereo unspecified) [Tritoqualine], the LC retention time is reported as 12 min. In the case of `Clc1ccc(COC(Cn2ccnc2)c2ccc(Cl)cc2Cl)c(Cl)c1` (stereo unspecified) [Miconazole], the LC retention time is reported as 13 min. Molecule `Cc1cc(Cl)ccc1N=CN(C)C` [Chlordimeform] has an LC retention time of 4.64 min. `CCN(CCO)CCn1c(Cc2ccccc2)nc2c1c(=O)n(C)c(=O)n2C` [Bamifylline] gave an LC retention time of 5.24 min. Molecule `COc1cc2nc(N3CCN(C(=O)C4CCCO4)CC3)nc(N)c2cc1OC` (stereo unspecified) [Terazosin] has an LC retention time of 4.92 min. Work on `CP(=O)(O)CCC(N)C(=O)O` (stereo unspecified) [Glufosinate] yielded an LC retention time of 1.44 min. `CC(C)=CC1C(C(=O)OCN2C(=O)C3=C(CCCC3)C2=O)C1(C)C` (stereo unspecified) [Tetramethrin] showed an LC retention time of 12.2 min. `CCCc1nc(C)c2c(=O)[nH]c(-c3cc(S(=O)(=O)N4CCN(CCO)CC4)ccc3OCC)nn12` [Vardenafil-Hydroxy] gave an LC retention time of 8.05 min. In the case of `O=C1Nc2ccc(Cl)cc2C(c2ccccc2)=NC1O` (stereo unspecified) [Oxazepam], the LC retention time is reported as 8.43 min. `O=C1NC(=O)C2CC=CCC12` (stereo not drawn) [Tetrahydrophthalimide (cis-) (1.2.3.6-)] gave an LC retention time of 4.37 min. In the case of `CC(N)Cc1ccc(O)cc1` (stereo unspecified) [Amphetamine-P-hydroxy], the LC retention time is reported as 2.98 min. Work on `CC(=O)OC1CCC2C3CCC4CC(=O)C=C(C)C4(C)C3CCC12C` (stereo unspecified) [Metenolone acetate] yielded an LC retention time of 12.5 min. With `CON=C1CC2(CC3CC(CC=C(C)CC(C)C=CC=C4COC5C(O)C(C)=CC(C(=O)O3)C45O)O2)OC(C(C)=CC(C)C)C1C` (stereo unspecified) [Moxidectin] the LC retention time was 13.8 min. Work on `CC(CCc1ccc(O)cc1)NCCc1ccc(O)c(O)c1` (stereo unspecified) [Dobutamine] yielded an LC retention time of 4.21 min. `CN(C)CCC=C1c2ccccc2COc2ccc(CC(=O)O)cc21` [Olopatadine] showed an LC retention time of 6.89 min. In the case of `O=C(O)c1c(Cl)ccc2cc(Cl)cnc12` [Quinclorac], the LC retention time is reported as 4.9 min. With `OCCOCCN1CCN(C2=Nc3ccccc3Sc3ccccc32)CC1` [Quetiapine] the LC retention time was 7.26 min. `Nc1cc(Cl)c(NC2=NCCN2)c(Cl)c1` [Apraclonidin] gave an LC retention time of 3.09 min. Molecule `CCCCCCCCn1sccc1=O` [2-Octyl-4-isothiazolin-3-one] has an LC retention time of 10.3 min. Work on `C#CCN(C)C(C)Cc1ccccc1` (stereo unspecified) [Deprenyl / Selegiline] yielded an LC retention time of 4.68 min. For `CCOC(=O)C(SP(=S)(OC)OC)c1ccccc1` (stereo unspecified) [Phenthoate], the LC retention time was 10.7 min. Molecule `CCOC(=O)C1C(OC(=O)c2ccccc2)CC2CCC1N2C` (stereo unspecified) [Cocaethylene] has an LC retention time of 5.46 min. Molecule `O=C1CN=C(c2ccccc2)c2c(sc3c2CCCC3)N1` [Bentazepam] has an LC retention time of 9.49 min. Work on `COC1C(OC(N)=O)C(O)C(Oc2ccc3c(O)c(NC(=O)c4ccc(O)c(CC=C(C)C)c4)c(=O)oc3c2C)OC1(C)C` (stereo unspecified) [Novobiocin] yielded an LC retention time of 11.2 min. `CCN(CC)C(=O)N1CCN(C)CC1` [Carbamazine-Diethyl] showed an LC retention time of 3.16 min. Work on `CN1CCCCC1Cn1cc(C(=O)c2ccccc2I)c2ccccc21` (stereo unspecified) [AM-2233] yielded an LC retention time of 7.11 min. For `CC(N)Cc1ccc2ccoc2c1` (stereo unspecified) [Benzofuran-6-ylpropan-2-amine<U+00A0>(6-APB)], the LC retention time was 4.81 min. With `Fc1cccc(F)c1-c1nnc(-c2ccccc2Cl)nn1` [Flufenzine (Diflovidazin)] the LC retention time was 10.8 min. `CCCCCn1cc(C(=O)C23CC4CC(CC(C4)C2)C3)c2ccccc21` [JWH-018-Adamantoyl. AB-001] gave an LC retention time of 13.7 min. For `COc1ccc2c3c1OC1C(=O)CCC4(O)C(C2)N(C)CCC314` (stereo unspecified) [Oxycodone], the LC retention time was 3.61 min. Molecule `CN1CCC(N(Cc2ccccc2)c2ccccc2)CC1` [Bamipine] has an LC retention time of 7.77 min. `O=C(c1cccc2ccccc12)c1cn(CCN2CCOCC2)c2cccc(O)c12` [JWH-200-M-4-OH-Ind] gave an LC retention time of 10.1 min. `CCOC(=O)CCN(SN(C)C(=O)Oc1cccc2c1OC(C)(C)C2)C(C)C` [Benfuracarb] showed an LC retention time of 11.9 min. Molecule `CC(C)=NOCCOC(=O)C(C)Oc1ccc(Oc2cnc3cc(Cl)ccc3n2)cc1` (stereo unspecified) [Propaquizafop] has an LC retention time of 12.3 min. Work on `COCCOc1c(OC)cc(Cc2cnc(N)nc2N)cc1OC` [Tetroxoprim] yielded an LC retention time of 4.24 min. `COc1ccccc1OCCNCC(O)COc1cccc2[nH]c3ccccc3c12` (stereo unspecified) [Carvedilol] gave an LC retention time of 6.91 min. With `NNC(N)=O` [Semicarbazide (SEM)] the LC retention time was 1.33 min. `CCN(CC)CCOCCOC(=O)C(CC)(CC)c1ccccc1` [Oxeladin] gave an LC retention time of 8.04 min. `NC(=O)N1c2ccccc2C=Cc2cc(O)ccc21` [2-Hydroxycarbamazepine] showed an LC retention time of 6.03 min. In the case of `COC(=O)C(C)Oc1ccc(Cl)cc1Cl` (stereo unspecified) [Dichlorprop-methyl], the LC retention time is reported as 10.5 min. With `CC(CC(c1ccccc1)c1ccccc1)NC(C)(C)C` (stereo unspecified) [Terodiline] the LC retention time was 7.91 min. `CN(C)CCc1c[nH]c2cccc(O)c12` [Psilocin] showed an LC retention time of 3.29 min. For `CCN(CC)CCOC(=O)C1(C2CCCCC2)CCCCC1` [Dicycloverine], the LC retention time was 9.99 min. `CN(C)CCC=C1c2ccccc2CSc2ccccc21` [Dosulepin] gave an LC retention time of 7.61 min. Molecule `C#CC(C)N(C)C(=O)Nc1ccc(Cl)cc1` (stereo unspecified) [Buturon] has an LC retention time of 8.35 min. `O=Cc1ccccc1Nc1ccccc1Cl` [2-(2-(Chlorophenyl)amino)benzaldehyde] gave an LC retention time of 11.4 min. With `COP(=S)(OC)Oc1ccc([N+](=O)[O-])c(Cl)c1` [Chlorthion] the LC retention time was 10.2 min. Molecule `CCCn1c(C)c(C(=O)c2cccc3ccccc23)c2ccccc21` [JWH-015] has an LC retention time of 11.5 min.
